Structures can show the parent of a compound that is named as a salt.
What was measured:
intimal hypertrophy [1] = test: Intimal Hypertrophy Inhibiting Activity in Rats, test (1): balloon denudation of thoracic aorta; assay type: in vivo, male S.D. rats; conditions: Rattus norvegicus, 336 h, oral once a day, 14 days after denudation, read-out: Inhibition (%) of intimal hypertrophy (intima/media thickness ratio)
Experimental: (§1) Pharmacological Test (Intimal Hypertrophy Inhibiting Activity in Rats)
(§2) By use of various compounds which serve as active ingredients of the present invention, the following tests (1) and (2) were performed in accordance with the method described in Journal of Clinical Investigation,85 (1990) 2004.
Groups of 14- to 15-week-old male S.D. rats were used. A 3F balloon catheter was inserted in each rat, under etherification, through the right iliac artery to the aorta. While the balloon was inflated, the endothelium of the thoracic aorta was denuded. Subsequently, the balloon catheter was removed, and an antibiotic was added dropwise into the abdominal cavity, followed by saturing. Each drug was suspended in 0.5% methylcellulose, and a dose of 10 ml/kg was orally administered once a day, starting from 2 hours after denudation. To the controls were administered 0.5% methylcellulose.
The rats were sacrificed 14 days after denudation. The thoracic aorta was removed and fixed with 10% neutrally-buffered formalin. Six segments cut out from the lower part of each sample were processed by a customary method to thereby prepare paraffin sections. Six specimens of the sections from each rat were stained with hematoxylin-eosin. The thickness of the neoplastic intima at the site of maximal hypertrophy and that of the media at the same site were measured, and the ratio of intimal thickness to media thickness was calculated. Assessment was performed in terms of percentage of intimal hypertrophy inhibition as determined from the intima/media thickness ratios, using as standards the data from the groups to which drugs had not been administered.
The following four different compounds (a)-(d) were used as comparative compounds: […]

intimal hypertrophy [2] = test: Intimal Hypertrophy Inhibiting Activity in Rats, test (2): balloon denudation of left carotid artery; assay type: in vivo, male S.D. rats; conditions: Dose 30 mg/kg, oral once a day, 14 days after denudation
Experimental: as §1, §2
Groups of 13- to 14-week-old male S.D. rats were used. A 2F balloon catheter was inserted in each rat under etherification through the right iliac artery to the left carotid artery. While the balloon was inflated, the endothelium of the left caroid artery was denuded. Subsequently, the balloon catheter was removed, and an antibiotic was added dropwise into the abdominal cavity, followed by saturing. Each drug was suspended in 0.5% methylcellulose, and a dose of 10 ml/kg was orally administered once a day, starting from 2 hours after denudation. To the controls were administered 0.5% methylcellulose.
The rats were sacrificed 14 days after denudation The left carotid artery was removed and fixed, through perfusion, with 10% buffered formalin. Each sample was divided into six segments and the segments were processed by a customary method to thereby prepare paraffin sections. Six specimens of the sections from each rat were stained with hematoxylin-eosin. The area of the neoplastic intima and that of the media were measured, and assessment was performed in terms of percentage of intimal hypertrophy inhibition as determined from the intima/media area ratios, using as standards the data from the groups to which drugs had not been administered.

intimal hypertrophy [3] = conditions: background statement; cited from earlier work

COc1ccc(C(c2ccc(OC)cc2)C2C(=O)Nc3ccccc32)cc1 (stereo not shown) [Compound 27, 3-[bis(4-methoxyphenyl)methyl]oxindole]
inhibition in vivo at 30 mg/kg (intimal hypertrophy [1]): 19.7%

O=C1Nc2ccc(O)cc2C1=Cc1cc2ccccc2[nH]1 [d, reference compound]
inhibition in vivo at 30 mg/kg (intimal hypertrophy [1]): -0.1%

CCOC(=O)CN1C(=O)C(=C(c2ccc(OC)cc2)c2ccc(OC)cc2)c2ccccc21 [Compound 18]
inhibition in vivo at 30 mg/kg (intimal hypertrophy [1]): 34.8%

COc1ccc(C(=C2C(=O)N(C)c3ccccc32)c2ccc(OC)cc2)cc1 [Compound 17]
inhibition in vivo at 30 mg/kg (intimal hypertrophy [1]): 20.9%

Cc1ccc(C(=C2C(=O)Nc3ccccc32)c2ccc(C)cc2)cc1 [Compound 2]
inhibition in vivo at 30 mg/kg (intimal hypertrophy [1]): 36.5% | inhibition in vivo at 100 mg/kg (intimal hypertrophy [1]): 42.3%

O=C1Nc2ccccc2C1=Cc1ccccn1 [Compound 38]
Inhibition (%) of intimal hypertrophy (intima/media area ratio) (intimal hypertrophy [2]): 42.0%

O=C1Nc2ccccc2C1=C(c1ccccn1)c1ccccn1 [Compound 35, 3-(di-2-pyridylmethylene)-oxindole]
Inhibition (%) of intimal hypertrophy (intima/media area ratio) (intimal hypertrophy [2]): 36.8%

COc1ccc(C(=C2C(=O)N(CC(=O)N(C)C)c3ccccc32)c2ccc(OC)cc2)cc1 [Compound 20]
inhibition in vivo at 30 mg/kg (intimal hypertrophy [1]): 7.2%

CCOC(=O)CCCCCN1C(=O)C(=C(c2ccc(OC)cc2)c2ccc(OC)cc2)c2ccccc21 [Compound 22]
inhibition in vivo at 30 mg/kg (intimal hypertrophy [1]): 28%

Nc1ccc(C(=C2C(=O)Nc3ccccc32)c2ccc(N)cc2)cc1 [Compound 33, 3-[bis(4-aminophenyl)methylene]-oxindole]
Inhibition (%) of intimal hypertrophy (intima/media area ratio) (intimal hypertrophy [2]): 32.7%

Cc1ccc(C(c2ccc(C)cc2)C2C(=O)Nc3ccccc32)cc1 (stereo not shown) [Compound 28]
inhibition in vivo at 30 mg/kg (intimal hypertrophy [1]): 28.4%

CCOC(=O)c1ccc2c(c1)C(=C(c1ccc(C)cc1)c1ccc(C)cc1)C(=O)N2 [Compound 9]
inhibition in vivo at 30 mg/kg (intimal hypertrophy [1]): 26.6%

CC(C)c1cc(C=C2C(=O)Nc3ccccc32)cc(C(C)C)c1O [b, reference compound]
inhibition in vivo at 30 mg/kg (intimal hypertrophy [1]): -26%

COc1ccc(/C=C/C(=O)Nc2ccccc2C(=O)O)cc1OC [a, Tranilast, reference compound]
inhibition in vivo at 30 mg/kg (intimal hypertrophy [1]): 7.1% | inhibition in vivo at 100 mg/kg (intimal hypertrophy [1]): 18.1% | activity as intimal hypertrophy inhibitor (intimal hypertrophy [3]): weak activity

COc1ccc(C(=C2C(=O)Nc3cccnc32)c2ccc(OC)cc2)cc1 [Compound 8]
inhibition in vivo at 30 mg/kg (intimal hypertrophy [1]): 28.9%

COc1ccc(C(=C2C(=O)Nc3ccc(N(C)C)cc32)c2ccc(OC)cc2)cc1 [Compound 10]
inhibition in vivo at 30 mg/kg (intimal hypertrophy [1]): 14.8%

COc1cc(C=C2C(=O)Nc3ccccc32)cc(OC)c1O [Compound 32]
inhibition in vivo at 30 mg/kg (intimal hypertrophy [1]): 34%

CN(C)CCOc1ccc(C(=C2C(=O)Nc3ccccc32)c2ccc(OCCN(C)C)cc2)cc1 [Compound 6]
inhibition in vivo at 30 mg/kg (intimal hypertrophy [1]): 14.7%

COC(=O)c1ccc(CN2C(=O)C(=C(c3ccc(OC)cc3)c3ccc(OC)cc3)c3ccccc32)cc1 [Compound 24]
inhibition in vivo at 30 mg/kg (intimal hypertrophy [1]): 35.1%

O=C1Nc2ccccc2C1=C(c1ccc(O)cc1)c1ccc(O)cc1 [Compound 5]
inhibition in vivo at 30 mg/kg (intimal hypertrophy [1]): 14.8%

COc1ccc(C(=C2C(=O)N(S(=O)(=O)c3ccc(C)cc3)c3ccccc32)c2ccc(OC)cc2)cc1 [Compound 25, 1-paratoluenesulfonyl-3-[bis(4-methoxyphenyl)methylene]oxindole]
inhibition in vivo at 30 mg/kg (intimal hypertrophy [1]): 7.6%

COc1ccc(C=C2C(=O)Nc3ccccc32)cc1 [Compound 31, 3-(4-methoxybenzylidene)-oxindole]
inhibition in vivo at 30 mg/kg (intimal hypertrophy [1]): 40%

Cc1ccc(C(=C2C(=O)Nc3cc(N)ccc32)c2ccc(C)cc2)cc1 [Compound 13]
inhibition in vivo at 30 mg/kg (intimal hypertrophy [1]): 10.9%

CON1C(=O)C(=Cc2cc(C(C)(C)C)c(O)c(C(C)(C)C)c2)c2ccc(Cl)cc21 [c, reference compound]
inhibition in vivo at 30 mg/kg (intimal hypertrophy [1]): -8.6%

COc1ccc(C(=C2C(=O)Nc3ccccc32)c2ccc(OC)cc2)cc1 [Compound 1, 3-[bis(4-methoxyphenyl)methylene]-oxindole]
inhibition in vivo at 30 mg/kg (intimal hypertrophy [1]): 33.2% | inhibition in vivo at 100 mg/kg (intimal hypertrophy [1]): 46.6%

COc1ccc(C(=C2C(=O)N(CCN(C)C)c3ccccc32)c2ccc(OC)cc2)cc1 [Compound 16, 1-dimethylaminoethyl-3-[bis(4-methoxyphenyl)methylene]oxindole.HCl]
inhibition in vivo at 30 mg/kg (intimal hypertrophy [1]): 21.1%

O=C1Nc2ccccc2C1=C(c1ccccc1)c1ccccc1 [Compound 7]
inhibition in vivo at 30 mg/kg (intimal hypertrophy [1]): 34.2%
